Test results as given in patent publication US20260327191A1, “GSK3a INHIBITORS AND METHODS OF USE THEREOF” (Blueprint Medicines Corporation, priority 2023, published 2026).
Structures can show the parent of a compound that is named as a salt. Where two headings read alike, the source gives them in different places.

Tests used:
GSK3B [1] = target: T1, GSK3B (Homo sapiens, UniProt P49841); experiment: In vitro enzymatic activity assay, GSK3β; type: biochemical; design: Full length human GSK3α or GSK3B expressed as N-terminal GST fusion proteins; GST (N); purchased Carna Biosciences (Japan); host or cells: baculovirus host; details: 1.0 mM ATP, 1.0 μM peptide substrate, 120 min, 25° C
GSK3A = target: T2, GSK3A (Homo sapiens, UniProt P49840); experiment: NanoBRET cellular target engagement assay, Nanoluc-GSK3A in HEK293 cells; type: cell-based; details: NanoBRET GSK3α IC50, HEK293 cells, tracer K-8, 2 hours, 37° C
T2 construct: expressed in transfected cells

human GSK3α = target: T3, human GSK3α (Homo sapiens, UniProt P49840); experiment: In vitro enzymatic activity assay, GSK3α; type: biochemical; details: 1.0 mM ATP, 1.0 μM peptide substrate, 120 min, 25° C
T3 construct: Full length human GSK3α or GSK3B expressed as N-terminal GST fusion proteins; GST (N); purchased Carna Biosciences (Japan); host or cells: baculovirus host

GSK3B [2] = target: T1, GSK3B; experiment: NanoBRET cellular target engagement assay, Nanoluc-GSK3B in HEK293 cells; type: cell-based; design: expressed in transfected cells; details: NanoBRET GSK3β IC50, HEK293 cells, tracer K-8, 2 hours, 37° C

T3 sequence (P49840 whole entry, the tested form may be a part): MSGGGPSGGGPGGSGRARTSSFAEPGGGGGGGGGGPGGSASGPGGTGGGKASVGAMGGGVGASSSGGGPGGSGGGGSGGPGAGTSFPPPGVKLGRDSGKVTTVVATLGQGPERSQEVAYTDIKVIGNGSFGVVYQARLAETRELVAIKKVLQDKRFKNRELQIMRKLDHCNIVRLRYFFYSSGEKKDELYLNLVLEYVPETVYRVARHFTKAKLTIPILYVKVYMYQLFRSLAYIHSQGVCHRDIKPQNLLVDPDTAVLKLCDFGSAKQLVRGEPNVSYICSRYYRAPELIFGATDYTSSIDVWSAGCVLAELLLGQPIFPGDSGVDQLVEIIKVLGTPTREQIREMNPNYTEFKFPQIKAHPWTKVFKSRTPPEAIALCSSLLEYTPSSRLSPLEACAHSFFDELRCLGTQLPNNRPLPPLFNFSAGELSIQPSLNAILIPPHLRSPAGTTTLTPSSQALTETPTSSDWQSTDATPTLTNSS
T2 sequence (P49840 whole entry): as the sequence (P49840 whole entry, the tested form may be a part) above
T1 sequence (P49841 whole entry, the tested form may be a part): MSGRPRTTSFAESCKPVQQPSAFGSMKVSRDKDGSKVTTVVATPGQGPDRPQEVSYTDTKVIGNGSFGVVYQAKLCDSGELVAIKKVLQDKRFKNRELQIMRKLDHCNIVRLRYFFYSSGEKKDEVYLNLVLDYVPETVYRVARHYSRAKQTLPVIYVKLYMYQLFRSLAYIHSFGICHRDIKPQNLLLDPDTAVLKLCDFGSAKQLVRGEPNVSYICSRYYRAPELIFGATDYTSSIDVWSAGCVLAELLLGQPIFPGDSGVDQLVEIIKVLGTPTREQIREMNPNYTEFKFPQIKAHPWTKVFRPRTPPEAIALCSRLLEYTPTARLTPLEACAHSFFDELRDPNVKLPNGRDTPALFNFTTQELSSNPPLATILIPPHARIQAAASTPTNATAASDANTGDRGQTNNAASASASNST

Row | Compound | IC50 (GSK3B [1]; read-out: Enzyme GSK3β (IC50)) [nM] | IC50 (GSK3A) [nM] | IC50 (human GSK3α; read-out: Enzyme GSK3α (IC50)) [nM] | IC50 (GSK3B [2]) [nM] | IC50 (GSK3B [1]; Enzyme GSK3β (IC50)) [nM] | IC50 (human GSK3α; Enzyme GSK3α (IC50)) [nM]
1 | CNCCc1c(NC(=O)c2c(N)ncn(-c3c(C)cccc3Cl)c2=O)cccc1OC [Example 164, 4-amino-1-((S)-2-chloro-6-methylphenyl)-N-(3-methoxy-2-(2-(methylamino)ethyl)phenyl)-6-oxo-1,6-dihydropyrimidine-5-carboxamide] | 1850 | 9.7 | 29.4 | 1170 |  | 
2 | CCNCc1cncc(NC(=O)c2c(N)ncn(-c3c(Cl)cc(C(F)F)cc3Cl)c2=O)c1 [Example 14, 4-amino-1-(2,6-dichloro-4-(difluoromethyl)phenyl)-N-(5-((ethylamino)methyl)pyridin-3-yl)-6-oxo-1,6-dihydropyrimidine-5-carboxamide] | 318 | 4 | 6.4 | 231 |  | 
3 | Cc1cc([C@@H](C)F)cc(C)c1-n1cnc(N)c(C(=O)Nc2cncc([C@H]3CCCCN3)c2)c1=O (single isomer, unassigned) [Example 184, 4-amino-1-(4-((R)-1-fluoroethyl)-2,6-dimethylphenyl)-6-oxo-N-(5-((R)-piperidin-2-yl)pyridin-3-yl)-1,6-dihydropyrimidine-5-carboxamide or 4-amino-1-(4-((S)-1-fluoroethyl)-2,6-dimethylphenyl)-6-oxo-N-(5-((R)-piperidin-2-yl)pyridin-3-yl)-1,6-dihydropyrimidine-5-carboxamide] | 175 | 2.1 | 3.9 | 167 |  | 
4 | NCc1cccc(NC(=O)c2c(N)ncn(-c3c(Cl)cccc3Cl)c2=O)c1C(F)(F)F [Example 171, 4-amino-N-(3-(aminomethyl)-2-(trifluoromethyl)phenyl)-1-(2,6-dichlorophenyl)-6-oxo-1,6-dihydropyrimidine-5-carboxamide] | 1280 | 30.1 | 44.8 | 851 |  | 
5 | CCOCc1cc(C)c(-n2cnc(N)c(C(=O)Nc3cncc([C@H]4CCCCN4)c3)c2=O)c(C)c1 [Example 131, (R)-4-amino-1-(4-(ethoxymethyl)-2,6-dimethylphenyl)-6-oxo-N-(5-(piperidin-2-yl)pyridin-3-yl)-1,6-dihydropyrimidine-5-carboxamide] | 202 | 2.3 | 4.9 | 159 |  | 
6 | COc1cc(Cl)c(-n2cnc(N)c(C(=O)Nc3cncc([C@@H]4C[C@@H](C)N4)c3)c2=O)c(Cl)c1 (single isomer, unassigned) [Example 214, 4-amino-1-(2,6-dichloro-4-methoxyphenyl)-N-(5-((2S,4R)-4-methylazetidin-2-yl)pyridin-3-yl)-6-oxo-1,6-dihydropyrimidine-5-carboxamide formate or 4-amino-1-(2,6-dichloro-4-methoxyphenyl)-N-(5-((2R,4S)-4-methylazetidin-2-yl)pyridin-3-yl)-6-oxo-1,6-dihydropyrimidine-5-carboxamide formate] | 930 | 8.9 | 17.3 | 640 |  | 
7 | CNC(C)c1cncc(NC(=O)c2c(N)ncn(-c3c(Cl)cc(Cl)cc3Cl)c2=O)c1 (single isomer, unassigned) [Example 13, (S)-4-amino-N-(5-(1-(methylamino)ethyl)pyridin-3-yl)-6-oxo-1-(2,4,6-trichlorophenyl)-1,6-dihydropyrimidine-5-carboxamide or (R)-4-amino-N-(5-(1-(methylamino)ethyl)pyridin-3-yl)-6-oxo-1-(2,4,6-trichlorophenyl)-1,6-dihydropyrimidine-5-carboxamide] | 1010 | 9.8 | 17.7 | 503 |  | 
8 | COc1cc(Cl)c(-n2cnc(N)c(C(=O)Nc3cncc4c3CCC43CCCN3)c2=O)c(Cl)c1 (stereo not shown) [Example 192, 4-amino-1-(2,6-dichloro-4-methoxyphenyl)-N-(5,6-dihydrospiro[cyclopenta[c]pyridine-7,2′-pyrrolidin]-4-yl)-6-oxo-1,6-dihydropyrimidine-5-carboxamide] | 14.7 | 1.4 | 1.8 | 18.8 |  | 
9 | Nc1ncn(-c2c(Cl)cc(Cl)cc2Cl)c(=O)c1C(=O)Nc1cncc([C@@H]2CCCCN2)c1 [Example 48, (S)-4-amino-6-oxo-N-(5-(piperidin-2-yl)pyridin-3-yl)-1-(2,4,6-trichlorophenyl)-1,6-dihydropyrimidine-5-carboxamide] | 343 | 4.7 | 5.2 | 298 |  | 
10 | COc1cc(Cl)c(-n2cnc(N)c(C(=O)Nc3cncc(C4(N)CC4)c3)c2=O)c(Cl)c1 [Example 181, 4-amino-N-(5-(1-aminocyclopropyl)pyridin-3-yl)-1-(2,6-dichloro-4-methoxyphenyl)-6-oxo-1,6-dihydropyrimidine-5-carboxamide] | 536 | 7 | 7.9 | 491 |  | 
11 | COCc1cc(C)c(-n2cnc(N)c(C(=O)Nc3cncc([C@H]4CCCCN4)c3)c2=S)c(C)c1 [Example 163, (R)-4-amino-1-(4-(methoxymethyl)-2,6-dimethylphenyl)-N-(5-(piperidin-2-yl)pyridin-3-yl)-6-thioxo-1,6-dihydropyrimidine-5-carboxamide trifluoroacetate] | 250 | 2.8 | 5.6 | 205 |  | 
12 | Nc1ncn(-c2c(O)cccc2Cl)c(=O)c1C(=O)Nc1cncc([C@@H]2CCCCN2)c1 [Example 173, (S)-4-amino-1-(2-chloro-6-hydroxyphenyl)-6-oxo-N-(5-(piperidin-2-yl)pyridin-3-yl)-1,6-dihydropyrimidine-5-carboxamide] |  | 1510 |  | 25000 | 10000 | 1880
13 | NCc1cccc(NC(=O)c2c(N)ncn(-c3c(Cl)cccc3Cl)c2=O)c1OC(F)F [Example 170, 4-amino-N-(3-(aminomethyl)-2-(difluoromethoxy)phenyl)-1-(2,6-dichlorophenyl)-6-oxo-1,6-dihydropyrimidine-5-carboxamide trifluoroacetate] | 520 | 16.4 | 21.8 | 526 |  | 
14 | Cc1cc(C#N)cc(Cl)c1-n1cnc(N)c(C(=O)Nc2cccc([C@@H]3CCCCN3)c2)c1=O (single isomer, unassigned) [Example 41, (S)-4-amino-1-((S)-2-chloro-4-cyano-6-methylphenyl)-6-oxo-N-(3-(piperidin-2-yl)phenyl)-1,6-dihydropyrimidine-5-carboxamide or (R)-4-amino-1-((S)-2-chloro-4-cyano-6-methylphenyl)-6-oxo-N-(3-(piperidin-2-yl)phenyl)-1,6-dihydropyrimidine-5-carboxamide] | 605 | 5.9 | 12.1 | 386 |  | 
15 | Nc1ncn(-c2c(Cl)cc(OC(F)F)cc2Cl)c(=O)c1C(=O)Nc1cccc([C@@H]2CCCN2)c1 [Example 193, (S)-4-amino-1-(2,6-dichloro-4-(difluoromethoxy)phenyl)-6-oxo-N-(3-(pyrrolidin-2-yl)phenyl)-1,6-dihydropyrimidine-5-carboxamide] | 481 | 6.8 | 9.2 | 487 |  | 
16 | CCOCC(N)c1cncc(NC(=O)c2c(N)ncn(-c3c(Cl)cc(OCC)cc3Cl)c2=O)c1 (single isomer, unassigned) [Example 140, (R)-4-amino-N-(5-(1-amino-2-ethoxyethyl)pyridin-3-yl)-1-(2,6-dichloro-4-ethoxyphenyl)-6-oxo-1,6-dihydropyrimidine-5-carboxamide or (S)-4-amino-N-(5-(1-amino-2-ethoxyethyl)pyridin-3-yl)-1-(2,6-dichloro-4-ethoxyphenyl)-6-oxo-1,6-dihydropyrimidine-5-carboxamide] | 1240 | 9.2 | 24.2 | 616 |  | 
17 | CO[C@H](C)c1cc(C)c(-n2cnc(N)c(C(=O)Nc3cncc([C@@H](C)N)c3)c2=O)c(C)c1 (single isomer, unassigned) [Example 174] | 705 | 8.7 | 28 | 560 |  | 
18 | COc1cc(Cl)c(-n2cnc(N)c(C(=O)Nc3cncc([C@@H]4CCCN4)c3)c2=O)c(Cl)c1 [Example 73, (S)-4-amino-1-(2,6-dichloro-4-methoxyphenyl)-6-oxo-N-(5-(pyrrolidin-2-yl)pyridin-3-yl)-1,6-dihydropyrimidine-5-carboxamide] | 318 | 5.8 | 6.7 | 374 |  | 
19 | COc1cc(Cl)c(-n2cnc(N)c(C(=O)Nc3cncc(C4(N)CCC4)c3)c2=O)c(Cl)c1 [Example 179, 4-amino-N-(5-(1-aminocyclobutyl)pyridin-3-yl)-1-(2,6-dichloro-4-methoxyphenyl)-6-oxo-1,6-dihydropyrimidine-5-carboxamide] | 257 | 3.3 | 3.7 | 179 |  | 
